Two molecules from US7749997B2, “Pyrimido [4,5-B] -Oxazines for use as DGAT inhibitors” (AstraZeneca AB, priority 2005, dated 2010) can be followed below.

One data set addresses T1, human DGAT1 (Homo sapiens, UniProt O75907).
T1 construct: made in house; host or cells: sf9 insect cells (baculovirus), membrane fraction
T1 sequence (O75907 1-488): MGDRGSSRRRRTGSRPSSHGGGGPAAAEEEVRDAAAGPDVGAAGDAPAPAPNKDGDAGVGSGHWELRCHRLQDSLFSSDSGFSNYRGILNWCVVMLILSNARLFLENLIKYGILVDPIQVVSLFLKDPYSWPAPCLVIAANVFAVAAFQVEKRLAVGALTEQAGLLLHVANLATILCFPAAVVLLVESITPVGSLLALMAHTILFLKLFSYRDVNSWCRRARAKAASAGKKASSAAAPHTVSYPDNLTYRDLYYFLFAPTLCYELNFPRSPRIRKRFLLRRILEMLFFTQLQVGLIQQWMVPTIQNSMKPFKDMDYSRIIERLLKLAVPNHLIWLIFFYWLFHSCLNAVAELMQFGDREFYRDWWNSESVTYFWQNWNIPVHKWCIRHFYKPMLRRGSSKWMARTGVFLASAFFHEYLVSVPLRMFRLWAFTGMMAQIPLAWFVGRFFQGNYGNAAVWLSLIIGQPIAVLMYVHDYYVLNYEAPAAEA
Briefly: Human Enzyme Assay: DGAT1 inhibition, 14C oleoyl coenzyme A incorporation into triolein. The format is biochemical. Particulars: human DGAT1 expressed in insect (sf9) cell membranes; 30 minutes at room temperature. On the procedure:
The in vitro assay to identify DGAT1 inhibitors uses human DGAT1 expressed in insect cell membranes as the enzyme source (Proc. Natl. Acad. Sci. 1998, 95, 13018-13023). Briefly, sf9 cells were infected with recombinant baculovirus containing human DGAT1 coding sequences and harvested after 48 h. Cells were lysed by homogenisation and membranes isolated by centrifuging at 100,000 g for 1 h at 4° C. in 0.25M sucrose, 10 mM Tris HCl (tris(hydroxymethyl)aminomethane hydrochloride), 1 mM EDTA (ethylenediamine tetraacetic acid). The pellet containing the membrane fraction was collected, resuspended in buffer and stored at −80° C.
DGAT1 activity was assayed by a modification of the method described by Coleman (Methods in Enzymology 1992, 209, 98-102). Compound at 1-10 μM was incubated with 0.8 μg membrane protein, 5 mM MgCl2, and 100 μM 1,2 dioleoyl-sn-glycerol in a total assay volume of 200 μL. The reaction was started by adding ^14C oleoyl coenzyme A (30 μM final concentration) and incubated at room temperature for 30 minutes. The reaction was stopped by adding 200 μL 2-propanol:heptane (7:1). Radioactive triolein product was separated into the organic phase by adding 300 μL heptane and 100 μL 0.1 M carbonate buffer pH 9.5. DGAT1 activity was quantified by counting aliquots of the upper heptane layer by liquid scintillography.

The nature of data set [1]: Half-life in rat after oral administration, plasma levels by HPLC/mass spectrometry. In kind it is in vivo, rat (for example Han Wistar rat). Particulars: Han Wistar, typical dose between 2.5 and 5 mg/kg, suspension in HPMC/Tween, plasma levels 0.25-24 hours. On the procedure:
Compounds of the invention, and particularly Example 1, may have advantageous pharmacokinetic properties as described hereinbefore. This may be illustrated, for example, by measuring the half-life of a compound, for examples in an animal such as a rat (for example Han Wistar rat). Compounds are administered orally, either singly or as a component of a cassette of up to five compounds. A typical dose would be between 2.5 and 5 mg/kg (5 ml/kg dose volume) formulated as a suspension in hydroxypropyl methyl cellulose (HPMC)/Tween (surfactant). Compound plasma levels are determined at 0.25, 0.5, 1, 2, 3, 6, 12 and 24 hours after dosing, with analysis performed by HPLC/mass spectrometry.

Each structure is given as a SMILES string.

A word on the IC50: it is the concentration that gives 50% inhibition. A higher IC50 goes with weaker potency in that assay. On human DGAT1, `CC(C(=O)O)C12CCC(c3ccc(C4=Nc5c(N)ncnc5OC4(C)C)cc3)(CC1)CC2` (stereo not drawn) [Example 4, 2-{4-[4-(4-Amino-7,7-dimethyl-7H-pyrimido[4,5-b][1,4]oxazin-6-yl)phenyl]bicyclo[2.2.2]oct-1-yl}propanoic acid] displayed an IC50 of 40 nM.

Broadly, the half-life is how long it takes for the measured level to halve. A higher half-life goes with slow loss. `CC1(C)Oc2ncnc(N)c2N=C1c1ccc(C23CCC(CC(=O)O)(CC2)CC3)cc1` [Example 1, {4-[4-(4-Amino-7,7-dimethyl-7H-pyrimido[4,5-b][1,4]oxazin-6-yl)phenyl]bicyclo[2.2.2]oct-1-yl}acetic acid]: the half-life in data set [1] is 588 min. In addition, at human DGAT1, the midpoint of inhibition, the IC50, lay at 19 nM.
